Data on 63 compounds can be found in ChEMBL document CHEMBL4007488, “Amphiphilic Indole Derivatives as Antimycobacterial Agents: Structure-Activity Relationships and Membrane Targeting Properties” (J Med Chem, 2017).

Assay [1] relates to Lipid bilayer. As to the kind of experiment: Binding affinity to DMPG vesicles assessed as change in enthalpy by differential scanning calorimetric analysis. (DSC measures the heat that a sample takes up or gives off during a temperature scan.)
For assay [2], the system named is Lipid bilayer. As to the kind of experiment: Binding affinity to DMPG vesicles assessed as melting transition temperature by differential scanning calorimetric analysis (reference value: 21.09 to 23.32 degC).
The subject of assay [3] is Mycobacterium tuberculosis. Kind of assay: Antimycobacterial activity against Mycobacterium tuberculosis H37Rv ATCC 27294 assessed as growth inhibition at 10 uM after 5 days relative to control. The format is functional. The following applies: H37Rv ATCC 27294, 120 h, read-out: GI.
The subject of assay [4] is Mycolicibacterium smegmatis. Kind of assay: Antimycobacterial activity against Mycobacterium smegmatis MC2 155 ATCC 700084 assessed as growth inhibition at 10 uM after 5 days relative to control. The format is functional. The following applies: MC2 155 ATCC 700084, 120 h, read-out: GI.

Turning to `CCCCCCn1cc(CN2CCCCCC2)c2c(F)cccc21`, the deltaH in assay [1] is -1.52 kcal/mol. Also, the Tm in assay [2] came out at 19 °C. Further, the inhibition of growth at 10 µM in assay [3] and in assay [4] was 99% in each case.

For the compound `CCN1CCN(Cc2cn(C/C=C(\C)CCC=C(C)C)c3ccc(F)cc23)CC1`, the inhibition of growth at 10 µM in assay [3] and in assay [4] was 99% throughout.

Turning to `CC(C)=CCC/C(C)=C/Cn1cc(CN2CCCCC2)c2cc(Cl)ccc21`, the inhibition of growth at 10 µM in assay [3] and in assay [4] was 99% in each case.

In the case of `CC(C)=CCC/C(C)=C/Cn1ccc2cc(F)ccc21`, the inhibition of growth at 10 µM in assay [3] and in assay [4] was 99% throughout.

`CCCCCCCCn1cc(CN2CCC3(CC2)OCCO3)c2cccc(OC)c21`: the inhibition of growth at 10 µM in assay [3] and in assay [4] was 99% each time.

In the case of `CC(C)=CCC/C(C)=C/Cn1cc(CNC2CCCC2)c2cc(F)ccc21`, the inhibition of growth at 10 µM in assay [3] and in assay [4] was 99% throughout.

Consider `CCCCCCCCn1cc(CNCCC)c2cc(F)ccc21`, for which the inhibition of growth at 10 µM in assay [3] and in assay [4] was 99% throughout.

For the compound `CC(C)=CCC/C(C)=C/Cn1cc(CN2CCSCC2)c2cc(F)ccc21`, the inhibition of growth at 10 µM in assay [3] and in assay [4] was 99% throughout.

In the case of `CC(C)=CCC/C(C)=C/Cn1cc(C(=O)N2CCCCC2)c2cc(F)ccc21`, the inhibition of growth at 10 µM in assay [3] and in assay [4] was 99% each time.

Regarding `CCCN(CCC)Cc1cn(C/C=C(\C)CCC=C(C)C)c2ccc(F)cc12`, the inhibition of growth at 10 µM in assay [3] and in assay [4] was 99% each time.

Regarding `CCCCCCCCn1cc(CN(C)C)c2cc(F)ccc21`, the inhibition of growth at 10 µM in assay [3] and in assay [4] was 99% throughout.

Regarding `N#CCCCn1cc(CN2CCCCC2)c2cc(F)ccc21`, the inhibition of growth at 10 µM in assay [3] and in assay [4] was 99% throughout.

Regarding `CCCCCCCCn1cc(CN2CCSCC2)c2cc(F)ccc21`, the inhibition of growth at 10 µM in assay [3] and in assay [4] was 99% throughout.

Regarding `CCCCCCCCn1cc(CNC23CC4CC(CC(C4)C2)C3)c2c(OC)cccc21`, the inhibition of growth at 10 µM in assay [3] and in assay [4] was 99% in each case.

As to `CCCCCCCCn1cc(CN(CCCC)CCCC)c2cc(F)ccc21`, the inhibition of growth at 10 µM in assay [3] and in assay [4] was 99% throughout.

For the compound `CCCCn1cc(CN2CCCCC2)c2cc(F)ccc21`, the inhibition of growth at 10 µM in assay [3] and in assay [4] was 99% in each case.

On to `CCCCCCCCn1cc(CN2CCC3(CC2)OCCO3)c2cc(F)ccc21`, for which the inhibition of growth at 10 µM in assay [3] and in assay [4] was 99% in each case.

As to `CCCCCCCCn1cc(CN2CCCCC2)c2ccc(OC)cc21`, the inhibition of growth at 10 µM in assay [3] and in assay [4] was 99% throughout.

Regarding `CCCCCCCCn1cc(CN2CCC(C)CC2)c2ccc(F)cc21`, the inhibition of growth at 10 µM in assay [3] and in assay [4] was 99% each time.

With `CCCCCCCCn1cc(CN2CCCC2)c2cc(F)ccc21`, the inhibition of growth at 10 µM in assay [3] and in assay [4] was 99% each time.

Take `CCCCCCCCn1cc(CNC23CC4CC(CC(C4)C2)C3)c2cc(F)ccc21`: the inhibition of growth at 10 µM in assay [3] and in assay [4] was 99% throughout.

Turning to `CCCCCCCCn1cc(CN2CCCCCC2)c2ccc(F)cc21`, the inhibition of growth at 10 µM in assay [3] and in assay [4] was 99% each time.

As to `CCCCCCCCn1cc(CNC23CC4CC(CC(C4)C2)C3)c2ccc(OC)cc21`, the inhibition of growth at 10 µM in assay [3] and in assay [4] was 99% in each case.

Take `CCCCCCCCn1cc(CN2CCCCCC2)c2cccc(OC)c21`: the inhibition of growth at 10 µM in assay [3] and in assay [4] was 99% each time.

Consider `Fc1ccc2c(c1)c(CN1CCCCC1)cn2Cc1ccccc1`, for which the inhibition of growth at 10 µM in assay [3] and in assay [4] was 99% each time.

As for `CCCCCCCCn1cc(CN2CCCCC2)c2cc(OC)ccc21`, the inhibition of growth at 10 µM in assay [3] and in assay [4] was 99% in each case.

As to `CC(C)=CCC/C(C)=C/Cn1cc(CNC23CC4CC(CC(C4)C2)C3)c2cc(F)ccc21`, the inhibition of growth at 10 µM in assay [3] and in assay [4] was 99% each time.

Consider `CCCCCCCCn1cc(CNC2CCCCCC2)c2cc(F)ccc21`, for which the inhibition of growth at 10 µM in assay [3] and in assay [4] was 99% each time.

For the compound `CCCCCCCCn1ccc2cc(F)ccc21`, the inhibition of growth at 10 µM in assay [3] and in assay [4] was 99% in each case.

As for `CCCCCCCCn1cc(CN2CCCCC2)c2ccc(F)cc21`, the inhibition of growth at 10 µM in assay [3] and in assay [4] was 99% in each case.

In the case of `CCCCCCCCn1cc(CN2CCCCC2)c2cccc(F)c21`, the inhibition of growth at 10 µM in assay [3] and in assay [4] was 99% throughout.

On to `CCCCCCCCn1cc(CN(CCC)CCC)c2cc(F)ccc21`, for which the inhibition of growth at 10 µM in assay [3] and in assay [4] was 99% each time.

Consider `Fc1ccc2c(c1)c(CN1CCCCC1)cn2CCC1CCCCC1`, for which the inhibition of growth at 10 µM in assay [3] and in assay [4] was 99% in each case.

Consider `CCCCCCCCn1cc(CNC2CC2)c2cc(F)ccc21`, for which the inhibition of growth at 10 µM in assay [3] and in assay [4] was 99% throughout.

For the compound `Fc1ccc2[nH]cc(CN3CCCCC3)c2c1`, the inhibition of growth at 10 µM in assay [3] and in assay [4] was 99% each time.

On to `CCCCCCCCn1cc(CN2CCCCCC2)c2cc(F)ccc21`, for which the inhibition of growth at 10 µM in assay [3] and in assay [4] was 99% in each case.

As for `CC(C)=CCC/C(C)=C/Cn1cc(CN2CCCC2)c2cc(F)ccc21`, the inhibition of growth at 10 µM in assay [3] and in assay [4] was 99% each time.

For the compound `CCCCCCCCn1cc(CNC23CC4CC(CC(C4)C2)C3)c2ccc(F)cc21`, the inhibition of growth at 10 µM in assay [3] and in assay [4] was 99% throughout.

As to `CCCCCCCCn1cc(CN2CCCCC2)c2cccc(OC)c21`, the inhibition of growth at 10 µM in assay [3] and in assay [4] was 99% each time.

Consider `CCCCCCCCn1cc(CNC(C)C)c2cc(F)ccc21`, for which the inhibition of growth at 10 µM in assay [3] and in assay [4] was 99% in each case.

In the case of `CC(C)=CCC/C(C)=C/Cn1cc(CN2CCCCC2)c2cc(Br)ccc21`, the inhibition of growth at 10 µM in assay [3] and in assay [4] was 99% throughout.

In the case of `CCCCCCCCn1cc(CN2CCCCC2)c2cc(Br)ccc21`, the inhibition of growth at 10 µM in assay [3] and in assay [4] was 99% in each case.

Consider `CCCCNC(=O)Cn1cc(CN2CCCCC2)c2cc(F)ccc21`, for which the inhibition of growth at 10 µM in assay [3] and in assay [4] was 99% throughout.

Consider `CCCN(CC)Cc1cn(C/C=C(\C)CCC=C(C)C)c2ccc(F)cc12`, for which the inhibition of growth at 10 µM in assay [3] and in assay [4] was 99% in each case.

As to `CCCCCCCCn1cc(CNC2CCCC2)c2cc(F)ccc21`, the inhibition of growth at 10 µM in assay [3] and in assay [4] was 99% in each case.

With `CCCCCCCCn1cc(CN2CCCCCC2)c2c(OC)cccc21`, the inhibition of growth at 10 µM in assay [3] and in assay [4] was 99% each time.

Consider `CCCCCCCCn1cc(CN2CCOCC2)c2cc(F)ccc21`, for which the inhibition of growth at 10 µM in assay [3] and in assay [4] was 99% each time.

As for `CCCCCCCCn1cc(CN2CCCCCC2)c2cc(OC)ccc21`, the inhibition of growth at 10 µM in assay [3] and in assay [4] was 99% each time.

Regarding `Fc1ccc2c(c1)c(CN1CCCCC1)cn2CCCOc1ccccc1`, the inhibition of growth at 10 µM in assay [3] and in assay [4] was 99% in each case.

Take `CCCCCCCCn1cc(CN2CCCCCC2)c2cccc(F)c21`: the inhibition of growth at 10 µM in assay [3] and in assay [4] was 99% each time.

As to `Fc1ccc2c(c1)c(CN1CCCCC1)cn2CCCc1ccccc1`, the inhibition of growth at 10 µM in assay [3] and in assay [4] was 99% in each case.

Turning to `CC(C)=CCC/C(C)=C/Cn1cc(CN(C)C)c2cc(F)ccc21`, the inhibition of growth at 10 µM in assay [3] and in assay [4] was 99% each time.

With `CCCCCCCCn1cc(CN2CCC3(CC2)OCCO3)c2cccc(F)c21`, the inhibition of growth at 10 µM in assay [3] and in assay [4] was 99% each time.

Regarding `CCCCCCCCn1cc(CNC23CC4CC(CC(C4)C2)C3)c2cccc(OC)c21`, the inhibition of growth at 10 µM in assay [3] and in assay [4] was 99% in each case.

With `CCCN(C)Cc1cn(C/C=C(\C)CCC=C(C)C)c2ccc(F)cc12`, the inhibition of growth at 10 µM in assay [3] and in assay [4] was 99% each time.

Regarding `CC(C)=CCC/C(C)=C/Cn1cc(CN2CCC3(CC2)OCCO3)c2cc(F)ccc21`, the inhibition of growth at 10 µM in assay [3] and in assay [4] was 99% each time.

Take `CC(C)=CCC/C(C)=C/Cn1cc(CN2CCCCC2)c2cccnc21`: the inhibition of growth at 10 µM in assay [3] and in assay [4] was 99% throughout.

As to `CCCCCCCCn1cc(CN2CCC3(CC2)OCCO3)c2c(OC)cccc21`, the inhibition of growth at 10 µM in assay [3] and in assay [4] was 99% each time.

Regarding `CCCCCCCCn1cc(CN2CCCCC2)c2cc(Cl)ccc21`, the inhibition of growth at 10 µM in assay [3] and in assay [4] was 99% throughout.

Regarding `CC(C)=CCC/C(C)=C/Cn1cc(CN2CCCCCC2)c2cc(F)ccc21`, the inhibition of growth at 10 µM in assay [3] and in assay [4] was 99% throughout.

For `CCCCCCCCn1cc(CN2CCC(C)CC2)c2cccc(F)c21`, the inhibition of growth at 10 µM in assay [3] and in assay [4] was 99% throughout.

Take `CCCCCCCCn1cc(CN2CCC(C)CC2)c2c(OC)cccc21`: the inhibition of growth at 10 µM in assay [3] and in assay [4] was 99% in each case.

With `CCCCCCCCn1cc(CN(C)CCC)c2cc(F)ccc21`, the inhibition of growth at 10 µM in assay [3] and in assay [4] was 99% each time.
